Assay results published in PubChem BioAssay AID608 (Sanford-Burnham Center for Chemical Genomics, 2007).
The source made the active and inactive calls. The rule behind the calls is not given here.

These compounds were tested against Peptidyl-prolyl cis-trans isomerase FKBP1A (Homo sapiens) (UniProt P62942) (assay: FKBP12 binders, biophysical, NMR detection (AID 608)). Conditions: NMR binding, purified FKBP12.
Peptidyl-prolyl cis-trans isomerase FKBP1A (Homo sapiens), sequence (P62942 whole entry, looked up): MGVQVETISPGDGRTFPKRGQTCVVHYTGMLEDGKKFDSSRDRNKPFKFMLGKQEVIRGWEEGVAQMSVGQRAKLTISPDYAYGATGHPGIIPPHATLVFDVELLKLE
For `CC(=O)N1CC2(C)CN(C(C)=O)CC(C)(C1)C2O` (centres undefined), the Kd was > 4 mM (inactive).
In the case of `CCn1ccc(C(=O)Nc2nccs2)n1`, the Kd is reported as > 4 mM (inactive).
In the case of `O=C(O)c1cc(O)c2c(c1)[C@@H]([C@H]1c3cc(C(=O)O)cc(O)c3C(=O)c3c(O[C@H]4O[C@H](CO)[C@@H](O)[C@H](O)[C@H]4O)cccc31)c1cccc(O[C@H]3O[C@H](CO)[C@@H](O)[C@H](O)[C@H]3O)c1C2=O`, the Kd is reported as > 4 mM (inactive).
With `C[C@]12C=CC(=O)C=C1CCC1C2CC[C@]2(C)C(=O)CCC12` (some centres undefined) the Kd was > 4 mM (inactive).
For `NC(=O)C1CCN(c2ncnc(N)c2[N+](=O)[O-])CC1`, the Kd was > 4 mM (inactive).
In the case of `CCNC(=S)Nc1c(C)n(C)n(-c2ccccc2)c1=O`, the Kd is reported as > 4 mM (inactive).
`COc1ccc(Cl)cc1NS(=O)(=O)N1CCOCC1` was tested, and the Kd was “inactive”.
`CC(C)NC(=S)N1CCN(S(C)(=O)=O)CC1` was tested, and the Kd was > 4 mM (inactive).
`CCOC(=O)C(C)c1n[nH]c(=O)c2ccccc12` (centres undefined) was tested, and the Kd was > 4 mM (inactive).
With `CC(C)NC(=O)c1cc(=O)n(C)c(=O)n1C` the Kd was > 4 mM (inactive).
`CC(=O)Nc1ccc(-c2cn3ccsc3n2)cc1` was tested, and the Kd was > 4 mM (inactive).
In the case of `CCCc1nc2ccccc2c2nc(N)nn12`, the Kd is reported as > 4 mM (inactive).
With `CC(C)(C)C(=O)Nc1ncc(C(F)(F)F)cc1Cl` the Kd was > 4 mM (inactive).
For `CCOc1ccc(C(=O)c2ccc(O)c(O)c2O)cc1`, the Kd was > 4 mM (inactive).
`CNC(=S)Nc1ccc2c(c1)OCO2` was tested, and the Kd was > 4 mM (inactive).
With `CC(=O)Nc1ccc(N2CCOCC2)cc1` the Kd was > 4 mM (inactive).
For `Nc1nc2[nH]c(=O)c(=O)[nH]c2c(=O)[nH]1`, the Kd was > 4 mM (inactive).
`COCC(=O)Nc1cccc2ccccc12` was tested, and the Kd was > 4 mM (inactive).
For `COc1ccc(C)cc1S(N)(=O)=O`, the Kd was > 4 mM (inactive).
`Nc1cccc2c(=O)[nH][nH]c(=O)c12` was tested, and the Kd was > 4 mM (inactive).
For `CCc1ccccc1OCC(=O)N1CCOCC1`, the Kd was > 4 mM (inactive).
With `C[C@H]1C(=O)CCC2[C@]3(C)CC[C@@]4(C)C5CC(C)(C)CC[C@]5(C)CC[C@]4(C)C3CC[C@@]21C` (some centres undefined) the Kd was > 4 mM (inactive).
In the case of `COc1ccc(-c2coc3cc(O)ccc3c2=O)c(OC)c1`, the Kd is reported as > 4 mM (inactive).
In the case of `CC1=NN(C(N)=S)C(C)(C)C1`, the Kd is reported as > 4 mM (inactive).
For `NC(=O)COc1ccccc1O`, the Kd was > 4 mM (inactive).
`COc1ccc2c(c1OC)C(=O)OC2[C@H]1c2c(cc3c(c2OC)OCO3)CCN1C` (some centres undefined) was tested, and the Kd was > 4 mM (inactive).
In the case of `CC(C)c1ccc2c(c1)CCC1[C@](C)(CN)CCC[C@]21C` (some centres undefined), the Kd is reported as > 4 mM (inactive).
With `CC(C)CC(=O)Nc1c[nH]c(=O)[nH]c1=O` the Kd was > 4 mM (inactive).
For `Cc1ccccc1NC(=O)CSc1ccnc(=O)[nH]1`, the Kd was > 4 mM (inactive).
In the case of `C=CC(C1=CC(=O)C(OC)=CC1=O)c1ccc(O)cc1` (centres undefined), the Kd is reported as > 4 mM (inactive).
In the case of `O=c1c[n+]([O-])c2ccccc2n1OCc1ccccc1`, the Kd is reported as > 4 mM (inactive).
`CCCCCC1C(=O)CCC1CC(=O)O` (centres undefined) was tested, and the Kd was > 4 mM (inactive).
`Cc1cc(NC(=O)CSc2nncn2C)no1` was tested, and the Kd was > 4 mM (inactive).
With `COc1cc2c(cc1NS(=O)(=O)N1CCCCC1)oc1ccccc12` the Kd was > 4 mM (inactive).
For `Nc1ncnc2c1ncn2CCN1CCCCC1`, the Kd was > 4 mM (inactive).
For `COC(=O)c1ccc(N2CCOCC2)nc1`, the Kd was > 4 mM (inactive).
With `Cc1nc2ccc(C(=O)O)cc2nc1C` the Kd was > 4 mM (inactive).
With `Cn1c(SCC(N)=O)nnc1-c1cccnc1` the Kd was > 4 mM (inactive).
For `CC(=O)OCC(=O)[C@@]1(O)CCC2C3CC[C@@H]4C[C@H](O)CC[C@]4(C)C3C(=O)C[C@@]21C` (some centres undefined), the Kd was > 4 mM (inactive).
`Cc1cc(C)n(CCCC(=O)O)n1` was tested, and the Kd was > 4 mM (inactive).
With `O=S1(=O)NC(=NCc2ccco2)c2ccccc21` the Kd was > 4 mM (inactive).
With `NC(=O)CCn1ncc2ccccc21` the Kd was > 4 mM (inactive).
For `COC(=O)c1cncn1C`, the Kd was > 4 mM (inactive).
For `CSc1cc(C)[nH]c(=O)n1`, the Kd was > 4 mM (inactive).
`Cc1nnc2n(c1=O)N=C(c1ccccc1)CS2` was tested, and the Kd was > 4 mM (inactive).
For `CCOC(=O)C1=C(O)CCN(C)C1`, the Kd was > 4 mM (inactive).
With `Cc1cc(C(=O)NCc2ccccc2Br)no1` the Kd was > 4 mM (inactive).
In the case of `CC(=O)c1c(C)nc(-c2ccc(F)cc2)n1O`, the Kd is reported as > 4 mM (inactive).
With `O=C1c2ccccc2C(=O)N1Cc1ccco1` the Kd was > 4 mM (inactive).
With `O=C(Nc1cccnc1)c1cccs1` the Kd was > 4 mM (inactive).
In the case of `CC1(C)CC[C@]2(C(=O)O)CC[C@]3(C)C(=CCC4[C@@]5(C)CC[C@H](O)[C@@](C)(CO)C5CC[C@]43C)C2C1` (some centres undefined), the Kd is reported as > 4 mM (inactive).
For `CCn1cnc2sc(C(=O)O)c(C)c2c1=O`, the Kd was > 4 mM (inactive).
In the case of `CS(=O)(=O)Nc1ccccc1C(=O)c1ccccc1`, the Kd is reported as > 4 mM (inactive).
With `CN(C)C(=S)Nc1nc2ccccc2s1` the Kd was 0.152 mM.
In the case of `C[C@H]1[C@H](C)CC[C@]2(CO)CC[C@]3(C)C(=CCC4[C@@]5(C)CC[C@H](O)C(C)(C)C5CC[C@]43C)[C@H]12` (some centres undefined), the Kd is reported as > 4 mM (inactive).
In the case of `Cc1cc(N2CCCC2=O)c(N)cc1N`, the Kd is reported as > 4 mM (inactive).
In the case of `Cc1cc(C(=O)NCc2cccs2)cs1`, the Kd is reported as > 4 mM (inactive).
With `Cc1c(CO)cnn1-c1ccccc1` the Kd was > 4 mM (inactive).
For `Nc1nc(-c2ccncc2)cs1`, the Kd was > 4 mM (inactive).
With `O=C(Nc1ccon1)c1cccc(C(F)(F)F)c1` the Kd was > 4 mM (inactive).
With `OCCNc1ccccn1` the Kd was > 4 mM (inactive).
In the case of `Oc1ccc(C2SCCS2)cc1`, the Kd is reported as > 4 mM (inactive).
With `CC(=O)Nc1nc(C)nc(-c2ccccc2)c1C(C)=O` the Kd was > 4 mM (inactive).
With `Cc1cc(C)c(C#N)c(N2CCCC2)n1` the Kd was > 4 mM (inactive).
`O=C(CS(=O)(=O)c1ccccc1)N1CCCCCC1` was tested, and the Kd was > 4 mM (inactive).
For `Cc1cc(C)c2ccc[n+]([O-])c2c1O`, the Kd was > 4 mM (inactive).
`Cc1ccc(-c2c(C)n([O-])c3c([n+]2=O)CCCC3)o1` was tested, and the Kd was > 4 mM (inactive).
`CC(=O)c1c(O)cc(O)cc1O` was tested, and the Kd was > 4 mM (inactive).
With `Cn1ncc2c(=O)n(CC(=O)c3ccccc3)cnc21` the Kd was > 4 mM (inactive).
With `CC(=O)Nc1nnc(-c2ccc(Cn3c(-c4cscn4)nc4ccccc43)cc2)s1` the Kd was “inactive”.
For `NC(=O)c1cc(Cl)c(C(N)=O)cc1Cl`, the Kd was > 4 mM (inactive).
`C=C1CCC2[C@](C)(CO)[C@H](O)CC[C@@]2(C)[C@@H]1C/C=C1/C(=O)OC[C@H]1O` (some centres undefined) was tested, and the Kd was > 4 mM (inactive).
With `Cn1c(SCC(N)=O)nnc1-c1c[nH]c2ccccc12` the Kd was > 4 mM (inactive).
For `NC(=O)CCS(=O)(=O)CCN1CCOCC1`, the Kd was > 4 mM (inactive).
With `CC[C@H](/C=C/C(C)C1CCC2C3CCC4=CC(=O)CC[C@]4(C)C3CC[C@]12C)C(C)C` (some centres undefined) the Kd was > 4 mM (inactive).
`COc1ccc(N/C(N)=N\c2nc(C)cc(C)n2)cc1` was tested, and the Kd was > 4 mM (inactive).
With `CN(C)c1ccc(NC(=O)CC(C(=O)O)N(C)C)cc1` (centres undefined) the Kd was > 4 mM (inactive).
For `Nc1ncnc2c1ncn2CCN1CCOCC1`, the Kd was > 4 mM (inactive).
`Cc1cc(S(=O)(=O)N2CCOCC2)ccc1F` was tested, and the Kd was > 4 mM (inactive).
With `CC1(C)C2CC[C@]3(C)C(C(=O)C=C4[C@@H]5C[C@@](C)(C(=O)O)CC[C@]5(C)CC[C@]43C)[C@@]2(C)CC[C@@H]1O` (some centres undefined) the Kd was > 4 mM (inactive).
In the case of `CCC(=O)Nc1ccccc1NC(C)=O`, the Kd is reported as > 4 mM (inactive).
For `CCCNC(CC(=O)Nc1cccnc1)C(=O)O` (centres undefined), the Kd was > 4 mM (inactive).
With `O=C1CSC(=S)N1N1C(=O)C2C3C=CC(C3)C2C1=O` (centres undefined) the Kd was > 4 mM (inactive).
For `Cc1ccccc1NS(=O)(=O)c1ccc(F)cc1`, the Kd was > 4 mM (inactive).
For `Cc1nccc(-c2cccc(N)c2)n1`, the Kd was > 4 mM (inactive).
`CN(C)c1nc(N)nc(-c2nc3ccccc3s2)n1` was tested, and the Kd was > 4 mM (inactive).
For `O=C(Nc1ccncc1)c1cncc(Br)c1`, the Kd was > 4 mM (inactive).
For `CS(=O)(=O)Cc1ccccc1`, the Kd was > 4 mM (inactive).
For `CC(=O)N1CN(C(C)=O)CN(C(C)=O)C1`, the Kd was > 4 mM (inactive).
For `COc1cc2c(cc1OC)Cc1cc(OC)c(OC)cc1Cc1cc(OC)c(OC)cc1C2`, the Kd was > 4 mM (inactive).
`CCC(C)C(=O)O[C@@H]1C[C@@]2(C)[C@H](c3ccoc3)OC(=O)CC23OC2(C)OC34[C@H](OC(=O)C(C)C)[C@@]3(O)[C@@H](OC(=O)C5(C)OC5C)[C@@]5(C)C[C@]3(O)[C@@](C)([C@H]5CC(=O)OC)C14O2` (some centres undefined) was tested, and the Kd was > 4 mM (inactive).
For `COC(=O)Nc1c(C)n(C)n(-c2ccccc2)c1=O`, the Kd was > 4 mM (inactive).
For `CC(=O)O[C@@H]1C=C[C@@]2(C)C(C[C@@H](OC(C)=O)[C@@]3(C)C4=CC(=O)O[C@@H](c5ccoc5)[C@]4(C)CCC23)C1(C)C` (some centres undefined), the Kd was > 4 mM (inactive).
For `CC(C)(C)CC(=O)NC1=NCCS1`, the Kd was > 4 mM (inactive).
With `CC1(C)C(=O)C=C[C@@]2(C)C1=C(O)C(=O)[C@]1(C)C2CC[C@@]2(C)[C@H](c3ccoc3)C[C@H]3O[C@]321` (some centres undefined) the Kd was > 4 mM (inactive).
For `c1ccc(CCc2nc(-c3ccncc3)no2)cc1`, the Kd was > 4 mM (inactive).
`Cc1nn(C)c(C)c1C(=O)O` was tested, and the Kd was > 4 mM (inactive).
With `NC(=O)CSc1nc2ccccc2c(=O)[nH]1` the Kd was > 4 mM (inactive).
With `Nc1cc(=O)[nH]c(=S)n1-c1cccc(C(F)(F)F)c1` the Kd was > 4 mM (inactive).
For `O=C1N=C(N2CCOCC2)S/C1=C\c1cccnc1`, the Kd was > 4 mM (inactive).
`Nc1ccc(Oc2ccccc2)nc1` was tested, and the Kd was > 4 mM (inactive).
In the case of `Oc1cccc(N2CCOCC2)c1`, the Kd is reported as > 4 mM (inactive).
`O=C(CSc1ccc2ccccc2c1)N1CCOCC1` was tested, and the Kd was 0.18 mM.
`CS(=O)(=O)CCCCN=C=S` was tested, and the Kd was > 4 mM (inactive).
In the case of `Cn1ncc(C(=O)NC2CCCCC2)c1Cl`, the Kd is reported as > 4 mM (inactive).
With `O=C(Nc1ccon1)c1ccc(Cl)s1` the Kd was > 4 mM (inactive).
`C=C1CCC2C(CC2(C)C)C(=O)CCC1O` (centres undefined) was tested, and the Kd was > 4 mM (inactive).
With `Cc1nc(-c2ccc(CO)s2)cs1` the Kd was > 4 mM (inactive).
In the case of `O=S(=O)(Cc1ccccc1Cl)Nc1ccccn1`, the Kd is reported as > 4 mM (inactive).
`O=S1(=O)CCC2CC=CCC21` (centres undefined) was tested, and the Kd was > 4 mM (inactive).
In the case of `Cn1c(CN2CC(c3ccccc3)CC2=O)n[nH]c1=S` (centres undefined), the Kd is reported as > 4 mM (inactive).
With `Cn1cccc1C(=O)NS(=O)(=O)c1ccccc1Cl` the Kd was > 4 mM (inactive).
In the case of `Cn1ccc(C(=O)NC(=S)NN2CCOCC2)n1`, the Kd is reported as > 4 mM (inactive).
In the case of `Cc1ccsc1/C=c1\sc2ncnn2c1=O`, the Kd is reported as > 4 mM (inactive).
